We go through one sequence from patent US9580465B2, “Tissue protective peptides and peptide analogs for preventing and treating diseases and disorders associated with tissue damage” (ARAIM PHARMACEUTICALS, INC., priority 2008, dated 2017).

“And” between values parts separate entries of the source, which are not always exact repeats. Equal entries are not always repeated. “Also recorded” adds a separate entry of the source. Square brackets hold non-standard residues; d marks the D form. pGlu = O=C1CC[C@@H](C(=O)O)N1

The test system of assay [1] is middle cerebral artery occlusion. As to the kind of experiment: Middle cerebral artery occlusion model. The format is in vivo, Sprague Dawley rats. Particulars: 2 μg/kg bw i.v. upon reperfusion, then three injections at 2-hour intervals. How it is done:
Sprague Dawley rats (8 per group) are subjected to the following MCAO protocol Surgery was performed in accordance with the teachings of Brines et al, 2000, PNAS USA 97:10526-10531 (hereby incorporated by reference in its entirety. Briefly, the rats are anesthetized with chloral hydrate (400 mg/kg-bw, i.p.), the carotid arteries were visualized, and the right carotid was occluded by two sutures and severed. A burr hole adjacent and rostral to the right orbit allowed visualization of the middle cerebral artery (“MCA”), which was cauterized distal to the rhinal artery. To produce a penumbra (border zone) surrounding this fixed MCA lesion, the contralateral carotid artery was occluded for 1 hour by using […] provided by a fine forceps and then re-opened.
The rats were administered saline, Peptide ID as a single i.v. dose (2 μg/kg bw), or Peptide IX, […], SEQ ID NO: 301), a scrambled version of Peptide IC, SEQ ID NO: 281, as a single Lv. dose (2 μg/kg bw) upon reperfusion, followed by three additional injections at 2-hour intervals. For assessment of injury, rats are subjected to behavioral testing or the volume of the lesion is determined by tetrazolium staining of brain sections performed 24 hours post surgery in accordance with the previously noted protocol.
The volume of the lesion was then determined by tetrazolium staining of brain sections performed 24 hours post surgery.
Rats were also tested in a foot fault behavioral protocol. Rats were tested on an elevated stainless steel grid floor 30 cm×30 cm with grid size of 30 mm according to the protocol of Markgraf et al., 1992, Brain Research 575:238-246 (hereby incorporated by reference in its entirety). When placed on the grid, a rat would attempt to move around and occasionally place a foot, rather than on the grid, through a grid opening (“foot fault”). The number of foot faults was measured for a 1 minute period.
The number of foot faults is indicative of the cognitive impairment of the rats due to the MCAO, the fewer the number of foot faults the less cognitive impairment.

Assay [2] relates to recall of previously experienced objects. The assay is described as follows: Novel object recognition paradigm. The format is in vivo, Wistar rats. Here is the method: A novel object recognition paradigm in rats was used to evaluate their recall of previously experienced objects. Specifically, adult Wistar rats were exposed to novel test objects and then reexposed to them 24 hours later. Animals were divided into 5 groups receiving either: (1) vehicle, (2) galantamine (3 mg/kg i.p.) 1 hr before testing as a positive control, (3) Peptide ID (24 nmol/kg bw i.p.) 3 hours after the first exposure to the novel objects, (4) Peptide ID (24 nmol/kg bw i.p.) twice daily for 5 days before training and continued through the day immediately after training, and (5) Peptide ID (24 nmol/kg bw i.p.) 1 hour before first exposure to the novel object.

The test system of assay [3] is histamine. The assay is described as follows: Histamine induced ear inflammation. As to conditions: 30 μg/kg IV; 15, 30, 45 and sixty minutes; versus saline; FIG. 15. The format is in vivo, Sprague Dawley rats. Here is the method:
The ability of peptides useful in the current therapeutic method to antagonize the pro-inflammatory affects of histamine were evaluated in a mouse model of histamine-induced edema disclosed in Brand et al. “Tea tree oil reduces histamine-induced oedema in murine ears,” Inflamm. Res. 51 (2002) 283-289. Briefly, 24 Sprague Dawley rats (male, 250 gm) were used in the study. Prior to the histamine challenge, each rat was anesthetized and the thickness of the rat's ear was measured using a spring loaded micrometer. 20 ul of 60 mg/ml solution of histamine diphosphate was injected intradermally into an ear of the rat and 30 seconds later the rat received either (1) 30 μg/kg Peptide ID IV (12 rats) or (2) Saline IV (12 rats). Then 20 ul of 60 mg/ml solution of histamine diphosphate was injected intradermally to the rat's other ear. The thickness of the rats ears was then measured using a caliper at 15, 30, 45 and sixty minutes following the histamine challenge.

The subject of assay [4] is histamine. As to the kind of experiment: Histamine induced wheal formation, peptide given at time of challenge. Format: in vivo, Sprague-Dawley rats. As to conditions: 30 μg/kg at time of histamine challenge. Here is the method: Under isoflurane anesthesia, 12 Sprague-Dawley rats' abdomens were shaved and depilated. Each rat was then injected intravenously (via internal jugular) with a dilute solution of Evans Blue (30 mg/ml in saline, 1 ml/kg bw). After 5 minutes, 6 small doses of histamine (Histamine diphosphate, 20 microliters administered intradermally) in a rectangular pattern on each rat's abdomen. After fifteen minutes, when the wheal reaches its maximum size the wheal is photographed and the blister area was determined by digital planimetry. To test the efficacy of various peptides, the peptide of interest was administered to the rats intravenously shortly after the histamine injection.
Rats received either saline, Peptide IY (30 μg/kg), Peptide ID (30 μg/kg), or Peptide IW (30 μg/kg) at time of histamine challenge.
Rats received either saline, peptide JA (30 μg/kg), peptide IZ (30 μg/kg), peptide IW (30 μg/kg) or peptide ID (30 μg/kg) at time of histamine challenge.

The subject of assay [5] is partial body irradiation of 15 Gy. The assay is described as follows: Radiomitigating activity in a gastrointestinal screening assay. As to conditions: 15 mice per group, 30 ug/kg subcutaneously from 24 hours, once a day, FIG. 22. Format: in vivo, C57BL/6 mice. Here is the method: The ability of peptides useful in the current therapeutic method to mitigate the effects of a radioactive agent on the gastrointestinal system was evaluated in a murine model of radiation injury. Briefly, 30 C57BL/6 mice (male, 20-30 gm) were used in the study.
The radiation was administered to the mice using a Pantak HF320 X-ray (Agfa NDT Ltd., Reading, UK), operated at 300 kV, 10 mA. The X-ray tube has additional filtration to give a radiation quality of 2.3 mm Cu half-value layer (HVL). Mice had their head, thorax, and forelimbs shielded to protect their bone marrow and select for the GI response. The mice were restrained in a jig and positioned at a distance of 700 mm focus from the focus of the X-ray tube. Irradiation was delivered at a dose rate of 75.5 cGy/min (unshielded) and 70.0 cGy/min (shielded) for a period sufficient to expose the mice to 15 Gy of radiation.
At 24 hours following radiation, 15 of the mice were administered Peptide ID (30 ug/kg subcutaneously) and then once a day for the duration of the study and remaining 15 mice (control group) received PBS (subcutaneously) and then once a day for the duration of the study.
The mice were weighed and monitored once a day until signs of diarrhea and early euthanasia appeared, then twice a day.

As for “UEQLERALNSS ([pGlu]EQLERALNSS-OH; also: acetate/ammonium mixed salt) [Peptide ID, first glutamine replaced with pyroglutamate]”, the “infarct volume (volume of lesion)” value in assay [1] (24 hours post surgery, tetrazolium staining) was 225±20 mm^3. Also, the “number of foot faults in 1 minute period” value in assay [1] (after MCAO, FIG. 5) was 11.2±1.1 foot faults. The “recognition of the novel objects” value is recorded as “increased the rats recognition of the novel objects” in assay [2] (galantamine 3 mg/kg of bw, Peptide ID 24 nmol/kg of bw at various time points, FIG. 9); “improved recognition of the novel objects” in assay [2] (group 3: 24 nmol/kg bw i.p. 3 hours after the first exposure to the novel objects); “improved recognition of the novel objects” in assay [2] (group 4: 24 nmol/kg bw i.p. twice daily for 5 days before training and through the day after training). The “ear thickness (edema) after histamine challenge” value in the assay on histamine [3] is on record as “reduced the amount of edema; also recorded: less inflammation”. Moreover, the “wheal area (lesion area)” value with histamine [4] (FIG. 18) is “about 0.35 cm^2”; in the assay on histamine [4] (FIG. 19), ~0.35 cm^2 and 0.4 cm^2. The “number of mice surviving to day 20” value in assay [5] was 6 mice.
